This note sets out measurements from patent US20210369684A1 (MOUNT TAM THERAPEUTICS, INC., priority 2018, published 2021).

In assay [1] the test system is 6-OHDA injected mice. Kind of assay: Anti-TH immunohistochemistry, 6-OHDA-induced striatal denervation. The class given is in vivo, mouse. Conditions: one-way ANOVA, FIG. 3B. On the procedure: Immunohistochemistry analysis using anti-tyrosine hydroxylase (TH) antibody was performed in mouse midbrain sections to quantify 6-OHDA-induced striatal denervation in mice injected with 6-OHDA and non-injected (control) sides of the brain. […] In contrast, both the 6-OHDA/rapamycin-treated and the 6-OHDA/Formula II-treated sides of the brain show increased staining with the anti-TH antibody, as indicated by the dark shading in those figures. FIG. 3B presents the mean and standard error of the mean (SEM) of the integrated density of anti-TH antibody staining in the striatum, as well as statistical analysis of the results for the groups of mice.

Assay [2] has as its system 6-OHDA injected mice. Kind of assay: Anti-TH immunohistochemistry, 6-OHDA-induced neuronal loss (TH-positive somas in SN). In kind it is in vivo, mouse. As to conditions: one-way ANOVA, FIG. 4B. Here is the method:
Immunohistochemistry analysis using anti-tyrosine hydroxylase (TH) antibody was also performed to quantify 6-OHDA-induced neuronal loss in mice injected with 6-OHDA and non-injected (control) sides of the brain. […] FIG. 4B presents the mean and standard error of the mean (SEM) as well as statistical analysis of the results.

Consider `CO[C@H]1C[C@@H]2CC[C@@H](C)[C@@](O)(O2)C(=O)C(=O)N2CCCC[C@H]2C(=O)O[C@H]([C@H](C)C[C@@H]2CC[C@@H](O)[C@H](OC)C2)CC(=O)[C@H](C)/C=C(\C)[C@@H](O)[C@@H](OC)C(=O)[C@H](C)C[C@H](C)/C=C/C=C/C=C/1C` [rapamycin, Rapamycin, reference compound], for which the “integrated density of anti-TH staining in striatum, p versus vehicle control” value in the assay on 6-OHDA injected mice [1] is recorded as below 0.05. Besides, the “TH+ neuronal loss, p versus vehicle control” value in the assay with 6-OHDA injected mice [2] was below 0.001.
